The test system of this experiment is Botrytis cinerea. Kind of experiment: Growth inhibition of Botrytis cinerea by acetophenones.

Each structure is given as a SMILES string.

Regarding `O=C(CO)c1ccccc1` [2-hydroxy acetophenone], the “inhibition of the growth of the fungus Botrytis cinerea” value is on record as “can inhibit the growth”.
